Data: PubChem BioAssay (NCI)
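GI50: concentration for 50% inhibition of growth. Definition used: TGI = concentration required for complete inhibition of growth.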

Legend:
Assay in all cases: DTP human tumour cell line panel, 384-well format
NCI-H322M lung = tested on: NCI-H322M lung
HOP-62 NSCLC = tested on: HOP-62 NSCLC
T-47D breast = tested on: T-47D breast
RXF 393 renal = tested on: RXF 393 renal
RPMI-8226 leukemia = tested on: RPMI-8226 leukemia
IGROV1 ovarian = tested on: IGROV1 ovarian
SNB-19 CNS = tested on: SNB-19 CNS
HCT-15 colon = tested on: HCT-15 colon
NCI-H226 lung = tested on: NCI-H226 lung
SNB-75 CNS = tested on: SNB-75 CNS
TK-10 renal = tested on: TK-10 renal
COLO 205 colon = tested on: COLO 205 colon
SK-MEL-5 melanoma = tested on: SK-MEL-5 melanoma
HS 578T breast = tested on: HS 578T breast
OVCAR-4 ovarian = tested on: OVCAR-4 ovarian
HL-60(TB) leukemia = tested on: HL-60(TB) leukemia
MOLT-4 leukemia = tested on: MOLT-4 leukemia
LOX IMVI melanoma = tested on: LOX IMVI melanoma
SR leukemia = tested on: SR leukemia
SF-295 CNS = tested on: SF-295 CNS
M14 melanoma = tested on: M14 melanoma
BT-549 breast = tested on: BT-549 breast
MCF7 breast = tested on: MCF7 breast
HOP-92 NSCLC = tested on: HOP-92 NSCLC
KM12 colon = tested on: KM12 colon
UACC-62 melanoma = tested on: UACC-62 melanoma
PC-3 prostate = tested on: PC-3 prostate
NCI-H23 lung = tested on: NCI-H23 lung
NCI-H522 lung = tested on: NCI-H522 lung
SF-268 CNS = tested on: SF-268 CNS
MALME-3M melanoma = tested on: MALME-3M melanoma
MDA-MB-231 breast = tested on: MDA-MB-231 breast
OVCAR-5 ovarian = tested on: OVCAR-5 ovarian
OVCAR-3 ovarian = tested on: OVCAR-3 ovarian
SK-OV-3 ovarian = tested on: SK-OV-3 ovarian
MDA-MB-468 breast = tested on: MDA-MB-468 breast
OVCAR-8 ovarian = tested on: OVCAR-8 ovarian
U251 glioblastoma = tested on: U251 glioblastoma
SK-MEL-28 melanoma = tested on: SK-MEL-28 melanoma
EKVX NSCLC = tested on: EKVX NSCLC
A498 renal = tested on: A498 renal
HCC-2998 colon = tested on: HCC-2998 colon
UACC-257 melanoma = tested on: UACC-257 melanoma
SF-539 CNS = tested on: SF-539 CNS
HCT-116 colon = tested on: HCT-116 colon
HT29 colon = tested on: HT29 colon
ACHN renal = tested on: ACHN renal
NCI-H460 NSCLC = tested on: NCI-H460 NSCLC
SN12C renal = tested on: SN12C renal
NCI/ADR-RES ovarian = tested on: NCI/ADR-RES ovarian
CAKI-1 renal = tested on: CAKI-1 renal
A549 NSCLC = tested on: A549 NSCLC
DU-145 prostate = tested on: DU-145 prostate
MDA-MB-435 melanoma = tested on: MDA-MB-435 melanoma

Which GI50 (NCI-H322M lung) does the source give for `CC(C)(C)Cn1c(N)nc2ccc(-c3[nH]c(C(C)(C)C)nc3-c3ccc(F)cc3)nc21` here?
Its GI50 is 4.97 µM.

What about the TGI (NCI-H322M lung) of the same molecule?
The TGI was 17.7 µM.

What about the GI50 (HOP-62 NSCLC) of the same molecule?
Its GI50 is 11.4 µM.

What about the TGI (HOP-62 NSCLC) of the same molecule?
Its TGI is 23.7 µM.

What about the GI50 (T-47D breast) of the same molecule?
The GI50 was 9.88 µM.

What about the TGI (T-47D breast) of the same molecule?
The TGI was 21.6 µM.

What about the GI50 (RXF 393 renal) of the same molecule?
Its GI50 is 12.9 µM.

And the TGI (RXF 393 renal)?
Its TGI is 25.6 µM.

What about the GI50 (RPMI-8226 leukemia) of the same molecule?
Its GI50 is 2 µM.

And the TGI (RPMI-8226 leukemia)?
The TGI was 5.4 µM.

And the GI50 (IGROV1 ovarian)?
The GI50 was 2.57 µM.

And the TGI (IGROV1 ovarian)?
The TGI was 12.4 µM.

What about the GI50 (SNB-19 CNS) of the same molecule?
Its GI50 is 11.9 µM.

And the TGI (SNB-19 CNS)?
The TGI was 24.3 µM.

And the GI50 (HCT-15 colon)?
Its GI50 is 2.16 µM.

What about the TGI (HCT-15 colon) of the same molecule?
The TGI was 4.75 µM.

And the GI50 (NCI-H226 lung)?
Its GI50 is 13.1 µM.

And the TGI (NCI-H226 lung)?
The TGI was 25.8 µM.

What about the GI50 (SNB-75 CNS) of the same molecule?
Its GI50 is 13.5 µM.

What about the TGI (SNB-75 CNS) of the same molecule?
The TGI was 26.5 µM.

And the GI50 (TK-10 renal)?
The GI50 was 3.02 µM.

And the TGI (TK-10 renal)?
Its TGI is 14.6 µM.

And the GI50 (COLO 205 colon)?
Its GI50 is 16 µM.

And the TGI (COLO 205 colon)?
Its TGI is 29.5 µM.

And the GI50 (SK-MEL-5 melanoma)?
The GI50 was 3.7 µM.

And the TGI (SK-MEL-5 melanoma)?
The TGI was 15.7 µM.

And the GI50 (HS 578T breast)?
Its GI50 is 11.4 µM.

What about the TGI (HS 578T breast) of the same molecule?
The TGI was 23.6 µM.

And the GI50 (OVCAR-4 ovarian)?
Its GI50 is 7.46 µM.

What about the TGI (OVCAR-4 ovarian) of the same molecule?
The TGI was 20.3 µM.

What about the GI50 (HL-60(TB) leukemia) of the same molecule?
Its GI50 is 3.78 µM.

And the TGI (HL-60(TB) leukemia)?
The TGI was 10.4 µM.

What about the GI50 (MOLT-4 leukemia) of the same molecule?
The GI50 was 7.35 µM.

And the TGI (MOLT-4 leukemia)?
The TGI was 19.5 µM.

What about the GI50 (LOX IMVI melanoma) of the same molecule?
The GI50 was 13.5 µM.

And the TGI (LOX IMVI melanoma)?
The TGI was 26.3 µM.

What about the GI50 (SR leukemia) of the same molecule?
The GI50 was 2.63 µM.

What about the TGI (SR leukemia) of the same molecule?
Its TGI is 13.5 µM.

And the GI50 (SF-295 CNS)?
Its GI50 is 10.6 µM.

What about the TGI (SF-295 CNS) of the same molecule?
The TGI was 22.6 µM.

And the GI50 (M14 melanoma)?
The GI50 was 12.9 µM.

What about the TGI (M14 melanoma) of the same molecule?
Its TGI is 25.6 µM.

And the GI50 (BT-549 breast)?
The GI50 was 12 µM.

And the TGI (BT-549 breast)?
The TGI was 24.5 µM.

And the GI50 (MCF7 breast)?
The GI50 was 6.64 µM.

And the TGI (MCF7 breast)?
Its TGI is 19.3 µM.

What about the GI50 (HOP-92 NSCLC) of the same molecule?
The GI50 was 10.2 µM.

What about the TGI (HOP-92 NSCLC) of the same molecule?
Its TGI is 22 µM.

What about the GI50 (KM12 colon) of the same molecule?
The GI50 was 5.24 µM.

What about the TGI (KM12 colon) of the same molecule?
The TGI was 17.4 µM.

What about the GI50 (UACC-62 melanoma) of the same molecule?
The GI50 was 10.7 µM.

What about the TGI (UACC-62 melanoma) of the same molecule?
Its TGI is 22.7 µM.

And the GI50 (PC-3 prostate)?
The GI50 was 10.2 µM.

And the TGI (PC-3 prostate)?
Its TGI is 22.1 µM.

And the GI50 (NCI-H23 lung)?
Its GI50 is 11.5 µM.

What about the TGI (NCI-H23 lung) of the same molecule?
Its TGI is 23.9 µM.

What about the GI50 (NCI-H522 lung) of the same molecule?
The GI50 was 5.97 µM.

And the TGI (NCI-H522 lung)?
Its TGI is 18.9 µM.

And the GI50 (SF-268 CNS)?
Its GI50 is 11.8 µM.

And the TGI (SF-268 CNS)?
Its TGI is 24.3 µM.

What about the GI50 (MALME-3M melanoma) of the same molecule?
The GI50 was 4.26 µM.

And the TGI (MALME-3M melanoma)?
Its TGI is 16.7 µM.

What about the GI50 (MDA-MB-231 breast) of the same molecule?
Its GI50 is 11.7 µM.

What about the TGI (MDA-MB-231 breast) of the same molecule?
Its TGI is 24.1 µM.

What about the GI50 (OVCAR-5 ovarian) of the same molecule?
Its GI50 is 3.37 µM.

What about the TGI (OVCAR-5 ovarian) of the same molecule?
Its TGI is 13 µM.

And the GI50 (OVCAR-3 ovarian)?
Its GI50 is 9.69 µM.

What about the TGI (OVCAR-3 ovarian) of the same molecule?
Its TGI is 21.5 µM.

What about the GI50 (SK-OV-3 ovarian) of the same molecule?
Its GI50 is 8.25 µM.

What about the TGI (SK-OV-3 ovarian) of the same molecule?
The TGI was 21 µM.

What about the GI50 (MDA-MB-468 breast) of the same molecule?
Its GI50 is 2.93 µM.

And the TGI (MDA-MB-468 breast)?
The TGI was 15.5 µM.

And the GI50 (OVCAR-8 ovarian)?
The GI50 was 9.78 µM.

And the TGI (OVCAR-8 ovarian)?
The TGI was 21.8 µM.

And the GI50 (U251 glioblastoma)?
The GI50 was 6.13 µM.

What about the TGI (U251 glioblastoma) of the same molecule?
The TGI was 18.6 µM.

What about the GI50 (SK-MEL-28 melanoma) of the same molecule?
Its GI50 is 12.6 µM.

What about the TGI (SK-MEL-28 melanoma) of the same molecule?
The TGI was 25.3 µM.

What about the GI50 (EKVX NSCLC) of the same molecule?
The GI50 was 2.74 µM.

What about the TGI (EKVX NSCLC) of the same molecule?
The TGI was 15.4 µM.

And the GI50 (A498 renal)?
The GI50 was 4.54 µM.

What about the TGI (A498 renal) of the same molecule?
The TGI was 18.6 µM.

What about the GI50 (HCC-2998 colon) of the same molecule?
Its GI50 is 3.6 µM.

What about the TGI (HCC-2998 colon) of the same molecule?
Its TGI is 14.4 µM.

And the GI50 (UACC-257 melanoma)?
Its GI50 is 2.92 µM.

What about the TGI (UACC-257 melanoma) of the same molecule?
Its TGI is 7.71 µM.

And the GI50 (SF-539 CNS)?
The GI50 was 11.9 µM.

And the TGI (SF-539 CNS)?
Its TGI is 24.4 µM.

What about the GI50 (HCT-116 colon) of the same molecule?
The GI50 was 6.38 µM.

And the TGI (HCT-116 colon)?
Its TGI is 18.9 µM.

And the GI50 (HT29 colon)?
The GI50 was 2.33 µM.

And the TGI (HT29 colon)?
The TGI was 6.39 µM.

And the GI50 (ACHN renal)?
The GI50 was 1.9 µM.

And the TGI (ACHN renal)?
Its TGI is 12.3 µM.

And the GI50 (NCI-H460 NSCLC)?
The GI50 was 4.3 µM.

And the TGI (NCI-H460 NSCLC)?
Its TGI is 16.2 µM.

What about the GI50 (SN12C renal) of the same molecule?
The GI50 was 1.8 µM.

And the TGI (SN12C renal)?
Its TGI is 14.7 µM.

What about the GI50 (NCI/ADR-RES ovarian) of the same molecule?
The GI50 was 3.76 µM.

What about the TGI (NCI/ADR-RES ovarian) of the same molecule?
Its TGI is 17.4 µM.

And the GI50 (CAKI-1 renal)?
The GI50 was 6.13 µM.

And the TGI (CAKI-1 renal)?
The TGI was 19.9 µM.

What about the GI50 (A549 NSCLC) of the same molecule?
The GI50 was 9.53 µM.

What about the TGI (A549 NSCLC) of the same molecule?
The TGI was 21.7 µM.

What about the GI50 (DU-145 prostate) of the same molecule?
The GI50 was 9.61 µM.

And the TGI (DU-145 prostate)?
The TGI was 21.6 µM.

And the GI50 (MDA-MB-435 melanoma)?
The GI50 was 13.4 µM.

What about the TGI (MDA-MB-435 melanoma) of the same molecule?
The TGI was 26.3 µM.
